According to PubChem BioAssay (NCI):
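Assay format: 96-well plates, 48-hour exposure. GI50 = concentration required for 50% inhibition of growth. TGI denotes the concentration required for complete inhibition of growth.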

Columns and labels:
Experiment in all cases: growth of human tumour cells (NCI), 48 h
SNB-75 CNS = system: SNB-75 CNS
SW-620 colon = system: SW-620 colon
SN12C renal = system: SN12C renal
SK-MEL-28 melanoma = system: SK-MEL-28 melanoma
SNB-19 CNS = system: SNB-19 CNS
EKVX NSCLC = system: EKVX NSCLC
RXF 393 renal = system: RXF 393 renal
MOLT-4 leukemia = system: MOLT-4 leukemia
MCF7 breast = system: MCF7 breast
SK-OV-3 ovarian = system: SK-OV-3 ovarian
NCI-H226 lung = system: NCI-H226 lung
A549 NSCLC = system: A549 NSCLC
DU-145 prostate = system: DU-145 prostate
SF-539 CNS = system: SF-539 CNS
HCT-15 colon = system: HCT-15 colon
NCI-H522 lung = system: NCI-H522 lung
CAKI-1 renal = system: CAKI-1 renal
HS 578T breast = system: HS 578T breast
SK-MEL-2 melanoma = system: SK-MEL-2 melanoma
SF-295 CNS = system: SF-295 CNS
NCI/ADR-RES ovarian = system: NCI/ADR-RES ovarian
SR leukemia = system: SR leukemia
786-0 renal = system: 786-0 renal
KM12 colon = system: KM12 colon
HOP-92 NSCLC = system: HOP-92 NSCLC
OVCAR-5 ovarian = system: OVCAR-5 ovarian
PC-3 prostate = system: PC-3 prostate
RPMI-8226 leukemia = system: RPMI-8226 leukemia
SK-MEL-5 melanoma = system: SK-MEL-5 melanoma
HOP-62 NSCLC = system: HOP-62 NSCLC
HCT-116 colon = system: HCT-116 colon
UO-31 renal = system: UO-31 renal
MALME-3M melanoma = system: MALME-3M melanoma
OVCAR-4 ovarian = system: OVCAR-4 ovarian
IGROV1 ovarian = system: IGROV1 ovarian
BT-549 breast = system: BT-549 breast
CCRF-CEM leukemia = system: CCRF-CEM leukemia
OVCAR-8 ovarian = system: OVCAR-8 ovarian
A498 renal = system: A498 renal
COLO 205 colon = system: COLO 205 colon
SF-268 CNS = system: SF-268 CNS
K-562 leukemia = system: K-562 leukemia
NCI-H460 lung = system: NCI-H460 lung
HCC-2998 colon = system: HCC-2998 colon
ACHN renal = system: ACHN renal
UACC-257 melanoma = system: UACC-257 melanoma
M14 melanoma = system: M14 melanoma
MDA-MB-435 = system: MDA-MB-435
U251 CNS = system: U251 CNS
HL-60(TB) leukemia = system: HL-60(TB) leukemia
TK-10 renal = system: TK-10 renal
HT29 colon = system: HT29 colon
OVCAR-3 ovarian = system: OVCAR-3 ovarian

SMILES: Cc1ccc2c(n1)C(=O)C(Cl)=C(Nc1cccc(C)c1C)C2=O
- GI50 (SNB-75 CNS): 1460 nM
- TGI (SNB-75 CNS): 2920 nM
- GI50 (SW-620 colon): 2060 nM
- TGI (SW-620 colon): 4820 nM
- GI50 (SN12C renal): 1670 nM
- TGI (SN12C renal): 4350 nM
- GI50 (SK-MEL-28 melanoma): 1930 nM
- TGI (SK-MEL-28 melanoma): 3700 nM
- GI50 (SNB-19 CNS): 1920 nM
- TGI (SNB-19 CNS): 5080 nM
- GI50 (EKVX NSCLC): 1580 nM
- TGI (EKVX NSCLC): 3730 nM
- GI50 (RXF 393 renal): 1520 nM
- TGI (RXF 393 renal): 2880 nM
- GI50 (MOLT-4 leukemia): 827 nM
- TGI (MOLT-4 leukemia): 3350 nM
- GI50 (MCF7 breast): 1160 nM
- TGI (MCF7 breast): 2950 nM
- GI50 (SK-OV-3 ovarian): 1590 nM
- TGI (SK-OV-3 ovarian): 3640 nM
- GI50 (NCI-H226 lung): 1940 nM
- TGI (NCI-H226 lung): 4390 nM
- GI50 (A549 NSCLC): 2150 nM
- TGI (A549 NSCLC): 5000 nM
- GI50 (DU-145 prostate): 1650 nM
- TGI (DU-145 prostate): 3200 nM
- GI50 (SF-539 CNS): 1670 nM
- TGI (SF-539 CNS): 3160 nM
- GI50 (HCT-15 colon): 1130 nM
- TGI (HCT-15 colon): 2730 nM
- GI50 (NCI-H522 lung): 1960 nM
- TGI (NCI-H522 lung): 4580 nM
- GI50 (CAKI-1 renal): 1570 nM
- TGI (CAKI-1 renal): 3120 nM
- GI50 (HS 578T breast): 2210 nM
- TGI (HS 578T breast): 6230 nM
- GI50 (SK-MEL-2 melanoma): 1910 nM
- TGI (SK-MEL-2 melanoma): 3840 nM
- GI50 (SF-295 CNS): 1840 nM
- TGI (SF-295 CNS): 3390 nM
- GI50 (NCI/ADR-RES ovarian): 1920 nM
- TGI (NCI/ADR-RES ovarian): 6600 nM
- GI50 (SR leukemia): 600 nM
- TGI (SR leukemia): 3210 nM
- GI50 (786-0 renal): 1900 nM
- TGI (786-0 renal): 4080 nM
- GI50 (KM12 colon): 1950 nM
- TGI (KM12 colon): 4540 nM
- GI50 (HOP-92 NSCLC): 1980 nM
- TGI (HOP-92 NSCLC): 3950 nM
- GI50 (OVCAR-5 ovarian): 2010 nM
- TGI (OVCAR-5 ovarian): 3930 nM
- GI50 (PC-3 prostate): 1430 nM
- TGI (PC-3 prostate): 3480 nM
- GI50 (RPMI-8226 leukemia): 1350 nM
- TGI (RPMI-8226 leukemia): 4120 nM
- GI50 (SK-MEL-5 melanoma): 1620 nM
- TGI (SK-MEL-5 melanoma): 3020 nM
- GI50 (HOP-62 NSCLC): 1550 nM
- TGI (HOP-62 NSCLC): 2960 nM
- GI50 (HCT-116 colon): 871 nM
- TGI (HCT-116 colon): 2600 nM
- GI50 (UO-31 renal): 1460 nM
- TGI (UO-31 renal): 2950 nM
- GI50 (MALME-3M melanoma): 1830 nM
- TGI (MALME-3M melanoma): 3300 nM
- GI50 (OVCAR-4 ovarian): 1140 nM
- TGI (OVCAR-4 ovarian): 2420 nM
- GI50 (IGROV1 ovarian): 1680 nM
- TGI (IGROV1 ovarian): 3720 nM
- GI50 (BT-549 breast): 1580 nM
- TGI (BT-549 breast): 3040 nM
- GI50 (CCRF-CEM leukemia): 1250 nM
- TGI (CCRF-CEM leukemia): 5220 nM
- GI50 (OVCAR-8 ovarian): 2020 nM
- TGI (OVCAR-8 ovarian): 7410 nM
- GI50 (A498 renal): 2230 nM
- TGI (A498 renal): 5190 nM
- GI50 (COLO 205 colon): 2030 nM
- TGI (COLO 205 colon): 4720 nM
- GI50 (SF-268 CNS): 1610 nM
- TGI (SF-268 CNS): 3480 nM
- GI50 (K-562 leukemia): 770 nM
- TGI (K-562 leukemia): 3580 nM
- GI50 (NCI-H460 lung): 2250 nM
- TGI (NCI-H460 lung): 5620 nM
- GI50 (HCC-2998 colon): 1920 nM
- TGI (HCC-2998 colon): 3770 nM
- GI50 (ACHN renal): 1620 nM
- TGI (ACHN renal): 3190 nM
- GI50 (UACC-257 melanoma): 1440 nM
- TGI (UACC-257 melanoma): 2800 nM
- GI50 (M14 melanoma): 1610 nM
- TGI (M14 melanoma): 3190 nM
- GI50 (MDA-MB-435): 1890 nM
- TGI (MDA-MB-435): 3720 nM
- GI50 (U251 CNS): 1550 nM
- TGI (U251 CNS): 3080 nM
- GI50 (HL-60(TB) leukemia): 1150 nM
- TGI (HL-60(TB) leukemia): 3490 nM
- GI50 (TK-10 renal): 2470 nM
- TGI (TK-10 renal): 4200 nM
- GI50 (HT29 colon): 2680 nM
- TGI (HT29 colon): 7160 nM
- GI50 (OVCAR-3 ovarian): 372 nM
- TGI (OVCAR-3 ovarian): 1400 nM
